According to article PMC11873616 (Acta Pharmaceutica Sinica. B, 2024):

Assays:
IEC6 cells [1] = test: Lactate determination in cell culture supernatant; type: cell-based, rat; conditions: TGFβ1 10 ng/mL, 2DG 1 mmol/L, 7 days, n = 6
IEC6 cells [2] = test: Fibrosis/EMT-related gene and protein expression in TGFβ1-induced EMT cell model; type: cell-based, rat; conditions: for expression of fibrotic genes and proteins (Vimentin, αSMA): TGFβ1, oxamate 20 mmol/L, DCA 20 mmol/L or rotenone 10 nmol/L
IEC6 cells [3] = test: Glycolysis and metabolic gene expression in TGFβ1-induced cells; type: cell-based, rat; conditions: TGFβ1 + 2DG vs TGFβ1, n = 7–8
IEC6 cells [4] = test: Histone lactylation; type: cell-based, rat; conditions: exogenous lactate, Western blot, n = 3
Smad2 or Smad3 = test: Smad2/Smad3 phosphorylation after lactate treatment; type: cell-based

## O=CC[C@@H](O)[C@H](O)[C@H](O)CO [Peptide 2DG, 2-Deoxy-D-glucose]
IEC6 cells [1]
  lactate levels (TGFβ1-mediated extracellular lactate production): substantial reduction
IEC6 cells [2]; TGFβ1 10 ng/mL, 2DG 1 mmol/L, 7 days
  expression of fibrotic genes and proteins: substantial reduction
IEC6 cells [3]
  glycolysis (GSEA-KEGG of gene expression): effectively inhibited glycolysis

## CC(O)C(=O)O (stereo not drawn) [lactate]
IEC6 cells [2]; lactate 10 mmol/L for 72 h, no TGFβ1, n = 6
  expression of fibrotic genes after lactate stimulation (qRT-PCR): significantly elevated
IEC6 cells [4]
  site-specific histone lactylation (H2BK16la, H3K9la, H3K18la, H4K5la and H4K12la): induced overwhelming lactylation modifications
Smad2 or Smad3
  phosphorylation of Smad2 or Smad3: did not alter

## C=C(C)[C@H]1Cc2c(ccc3c2O[C@@H]2COc4cc(OC)c(OC)cc4[C@@H]2C3=O)O1 [rotenone]
IEC6 cells [2]
  expression of fibrotic genes and proteins (Vimentin, αSMA): increased the expression of fibrotic genes

## O=C(O)C(Cl)Cl [DCA, sodium dichloroacetate]
IEC6 cells [2]
  expression of fibrotic genes and proteins (Vimentin, αSMA): more pronounced reduction

## NC(=O)C(=O)O [oxamate]
IEC6 cells [2]
  expression of fibrotic genes and proteins (Vimentin, αSMA): more pronounced reduction
